This is an account of results in ChEMBL document CHEMBL3991601, “The target landscape of clinical kinase drugs” (Science, 2017).

For experiment [1], the target named is T1, Peroxisomal acyl-coenzyme A oxidase 1 (Homo sapiens, UniProt Q15067).
T1 sequence (Q15067 whole entry): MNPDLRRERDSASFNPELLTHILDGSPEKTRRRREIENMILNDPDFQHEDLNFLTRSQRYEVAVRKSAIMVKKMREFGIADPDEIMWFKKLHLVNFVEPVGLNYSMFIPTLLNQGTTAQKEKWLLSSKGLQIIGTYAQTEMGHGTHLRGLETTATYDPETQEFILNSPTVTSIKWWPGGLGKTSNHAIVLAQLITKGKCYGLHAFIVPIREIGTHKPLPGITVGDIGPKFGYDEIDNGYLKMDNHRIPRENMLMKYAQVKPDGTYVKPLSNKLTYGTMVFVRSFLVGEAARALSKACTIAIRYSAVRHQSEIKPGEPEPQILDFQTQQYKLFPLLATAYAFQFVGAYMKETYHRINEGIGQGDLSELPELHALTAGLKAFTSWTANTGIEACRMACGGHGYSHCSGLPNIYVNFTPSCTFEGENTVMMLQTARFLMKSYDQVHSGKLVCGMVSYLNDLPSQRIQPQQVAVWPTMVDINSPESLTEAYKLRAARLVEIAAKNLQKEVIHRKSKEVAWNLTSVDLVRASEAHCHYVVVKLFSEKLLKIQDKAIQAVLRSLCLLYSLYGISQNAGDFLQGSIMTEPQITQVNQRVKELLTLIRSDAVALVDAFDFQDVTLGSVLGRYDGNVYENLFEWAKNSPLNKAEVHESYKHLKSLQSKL

For experiment [2], the target named is T2, Activin receptor type-1B (Homo sapiens, UniProt P36896).
T2 sequence (P36896 whole entry): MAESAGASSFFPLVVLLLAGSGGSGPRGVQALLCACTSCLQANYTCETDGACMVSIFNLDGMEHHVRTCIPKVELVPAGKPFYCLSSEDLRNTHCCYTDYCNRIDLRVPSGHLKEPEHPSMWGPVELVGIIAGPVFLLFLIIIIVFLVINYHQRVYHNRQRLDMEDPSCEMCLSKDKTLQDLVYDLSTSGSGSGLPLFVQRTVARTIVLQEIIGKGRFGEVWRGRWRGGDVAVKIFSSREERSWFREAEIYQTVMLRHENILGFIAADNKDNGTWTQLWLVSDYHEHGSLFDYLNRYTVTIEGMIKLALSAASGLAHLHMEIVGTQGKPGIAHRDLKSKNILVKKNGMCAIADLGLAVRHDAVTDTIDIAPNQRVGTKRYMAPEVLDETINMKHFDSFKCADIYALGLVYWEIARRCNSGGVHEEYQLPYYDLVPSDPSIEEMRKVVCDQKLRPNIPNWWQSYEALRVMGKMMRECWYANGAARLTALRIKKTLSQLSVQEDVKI

Experiment [3] concerns the target Mitogen-activated protein kinase kinase kinase 1 (Homo sapiens, UniProt Q13233).
Experiment [4] has as its target Tyrosine-protein kinase FRK (Homo sapiens, UniProt P42685).
Experiment [5] has as its target T3, Scaffold protein ILK (Homo sapiens, UniProt Q13418).
T3 sequence (Q13418 whole entry): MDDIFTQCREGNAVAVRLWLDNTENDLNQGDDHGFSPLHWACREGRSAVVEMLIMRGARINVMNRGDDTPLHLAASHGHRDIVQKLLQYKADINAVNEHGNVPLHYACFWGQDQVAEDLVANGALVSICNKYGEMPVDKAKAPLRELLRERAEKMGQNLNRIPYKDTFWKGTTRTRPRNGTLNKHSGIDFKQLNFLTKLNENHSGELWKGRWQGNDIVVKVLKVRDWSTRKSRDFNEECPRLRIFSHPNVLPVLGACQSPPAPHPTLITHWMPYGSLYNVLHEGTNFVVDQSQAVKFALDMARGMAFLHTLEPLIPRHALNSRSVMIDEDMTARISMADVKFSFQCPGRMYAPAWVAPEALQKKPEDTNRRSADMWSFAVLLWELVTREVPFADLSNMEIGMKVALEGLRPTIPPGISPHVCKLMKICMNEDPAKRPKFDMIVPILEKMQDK

Experiment [6] deals with Casein kinase I isoform delta (Homo sapiens, UniProt P48730).
Chain of Casein kinase I isoform delta (P48730 whole entry, canonical isoform): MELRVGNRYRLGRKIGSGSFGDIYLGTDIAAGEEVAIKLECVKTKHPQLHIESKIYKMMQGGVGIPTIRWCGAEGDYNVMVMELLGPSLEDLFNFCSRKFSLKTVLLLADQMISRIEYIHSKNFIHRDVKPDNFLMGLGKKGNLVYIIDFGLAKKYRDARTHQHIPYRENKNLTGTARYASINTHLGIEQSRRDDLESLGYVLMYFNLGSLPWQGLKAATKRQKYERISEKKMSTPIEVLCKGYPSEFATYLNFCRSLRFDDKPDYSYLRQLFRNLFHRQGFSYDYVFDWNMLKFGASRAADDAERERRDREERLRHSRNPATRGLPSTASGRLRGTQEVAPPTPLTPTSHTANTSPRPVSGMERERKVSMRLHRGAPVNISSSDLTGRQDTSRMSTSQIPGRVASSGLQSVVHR
For experiment [7], the target named is Tyrosine-protein kinase HCK (Homo sapiens, UniProt P08631).
Chain of Tyrosine-protein kinase HCK (P08631 whole entry): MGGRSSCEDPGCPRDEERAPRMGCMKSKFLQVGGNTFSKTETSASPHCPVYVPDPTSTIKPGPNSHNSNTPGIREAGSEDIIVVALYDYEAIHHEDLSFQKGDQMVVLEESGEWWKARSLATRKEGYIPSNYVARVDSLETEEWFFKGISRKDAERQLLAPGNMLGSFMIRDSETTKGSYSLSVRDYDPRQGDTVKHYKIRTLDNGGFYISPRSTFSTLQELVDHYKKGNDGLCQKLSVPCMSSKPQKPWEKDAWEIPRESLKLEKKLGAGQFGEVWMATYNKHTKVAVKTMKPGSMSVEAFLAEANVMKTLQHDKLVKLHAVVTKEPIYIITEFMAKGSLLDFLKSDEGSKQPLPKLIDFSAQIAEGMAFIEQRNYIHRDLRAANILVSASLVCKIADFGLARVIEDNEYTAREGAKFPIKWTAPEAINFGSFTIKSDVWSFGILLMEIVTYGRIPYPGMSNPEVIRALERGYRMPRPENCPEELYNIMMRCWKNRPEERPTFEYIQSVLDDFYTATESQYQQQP
The target in experiment [8] is Ribosomal protein S6 kinase alpha-5 (Homo sapiens, UniProt O75582).
Chain of Ribosomal protein S6 kinase alpha-5 (O75582 whole entry): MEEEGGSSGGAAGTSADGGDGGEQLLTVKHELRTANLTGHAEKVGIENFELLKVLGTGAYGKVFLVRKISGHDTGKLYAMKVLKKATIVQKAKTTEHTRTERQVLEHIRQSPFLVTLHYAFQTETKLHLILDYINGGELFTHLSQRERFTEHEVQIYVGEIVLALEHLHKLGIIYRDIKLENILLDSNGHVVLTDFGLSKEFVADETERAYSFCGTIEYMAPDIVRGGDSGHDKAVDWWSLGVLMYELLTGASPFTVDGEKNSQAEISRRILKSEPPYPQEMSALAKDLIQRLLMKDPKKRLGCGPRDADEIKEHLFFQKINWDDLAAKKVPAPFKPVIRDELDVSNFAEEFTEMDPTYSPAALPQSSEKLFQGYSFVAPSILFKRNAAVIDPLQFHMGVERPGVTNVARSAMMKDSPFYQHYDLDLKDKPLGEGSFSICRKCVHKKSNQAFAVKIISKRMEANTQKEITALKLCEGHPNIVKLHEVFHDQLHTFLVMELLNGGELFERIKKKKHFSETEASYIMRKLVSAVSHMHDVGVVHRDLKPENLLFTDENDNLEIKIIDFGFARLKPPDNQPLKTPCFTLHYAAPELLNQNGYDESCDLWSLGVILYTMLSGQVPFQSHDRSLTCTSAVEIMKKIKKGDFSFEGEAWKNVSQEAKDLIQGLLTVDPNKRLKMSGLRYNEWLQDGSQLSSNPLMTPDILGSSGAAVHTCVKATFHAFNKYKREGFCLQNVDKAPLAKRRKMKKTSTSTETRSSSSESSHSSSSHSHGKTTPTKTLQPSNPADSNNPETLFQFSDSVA
For experiment [9], the target named is Proto-oncogene tyrosine-protein kinase Src (Homo sapiens, UniProt P12931).
Chain of Proto-oncogene tyrosine-protein kinase Src (P12931 2-536 limits assumed): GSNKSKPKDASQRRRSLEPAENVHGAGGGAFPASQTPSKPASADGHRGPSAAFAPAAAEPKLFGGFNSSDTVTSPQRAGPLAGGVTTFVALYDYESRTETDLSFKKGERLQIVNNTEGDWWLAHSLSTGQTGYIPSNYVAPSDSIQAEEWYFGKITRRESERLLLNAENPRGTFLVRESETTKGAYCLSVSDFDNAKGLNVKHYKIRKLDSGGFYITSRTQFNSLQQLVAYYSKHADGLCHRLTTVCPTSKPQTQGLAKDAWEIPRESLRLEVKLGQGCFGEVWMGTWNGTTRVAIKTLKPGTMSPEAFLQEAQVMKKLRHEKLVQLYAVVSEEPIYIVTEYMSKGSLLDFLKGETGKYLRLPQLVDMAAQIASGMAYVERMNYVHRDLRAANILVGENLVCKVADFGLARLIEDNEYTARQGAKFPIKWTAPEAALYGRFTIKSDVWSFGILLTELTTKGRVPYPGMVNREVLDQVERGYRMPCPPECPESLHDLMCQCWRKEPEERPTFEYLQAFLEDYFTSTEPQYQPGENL
Experiment [10] concerns the target T4, Ephrin type-B receptor 3 (Homo sapiens, UniProt P54753).
T4 sequence (P54753 whole entry): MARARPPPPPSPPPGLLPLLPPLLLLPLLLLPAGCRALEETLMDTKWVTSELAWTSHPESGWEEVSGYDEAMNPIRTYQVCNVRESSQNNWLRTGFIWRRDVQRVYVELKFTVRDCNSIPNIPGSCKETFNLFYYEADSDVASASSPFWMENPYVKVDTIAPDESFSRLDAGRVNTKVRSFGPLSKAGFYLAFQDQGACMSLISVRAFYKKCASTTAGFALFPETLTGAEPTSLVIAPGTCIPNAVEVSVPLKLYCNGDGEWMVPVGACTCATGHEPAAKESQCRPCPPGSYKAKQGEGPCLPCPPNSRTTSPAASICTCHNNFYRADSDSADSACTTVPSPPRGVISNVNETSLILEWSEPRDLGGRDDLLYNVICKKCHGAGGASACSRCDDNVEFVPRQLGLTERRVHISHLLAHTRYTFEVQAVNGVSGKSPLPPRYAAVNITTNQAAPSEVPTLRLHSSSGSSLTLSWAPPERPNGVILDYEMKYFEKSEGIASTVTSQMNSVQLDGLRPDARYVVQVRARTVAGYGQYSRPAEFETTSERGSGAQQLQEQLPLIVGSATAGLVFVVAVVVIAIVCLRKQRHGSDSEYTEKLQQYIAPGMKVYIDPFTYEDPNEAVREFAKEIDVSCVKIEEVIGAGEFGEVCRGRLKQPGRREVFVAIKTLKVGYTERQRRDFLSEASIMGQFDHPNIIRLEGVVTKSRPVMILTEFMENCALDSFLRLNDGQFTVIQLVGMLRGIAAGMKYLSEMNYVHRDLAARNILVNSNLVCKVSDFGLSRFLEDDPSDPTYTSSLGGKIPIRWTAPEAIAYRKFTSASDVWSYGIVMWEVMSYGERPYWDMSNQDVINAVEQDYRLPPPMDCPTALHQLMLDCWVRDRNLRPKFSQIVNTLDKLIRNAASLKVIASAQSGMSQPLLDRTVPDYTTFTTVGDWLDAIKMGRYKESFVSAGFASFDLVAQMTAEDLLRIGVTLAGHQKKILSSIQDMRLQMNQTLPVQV

The source made the active and inactive calls. Cut-off read from the data, not from the text of the source, for most assays here: actives have a measured Kd and inactives only a lower limit.
Note: in the data inactive means no Kd found up to 30 µM.

Chain of Tyrosine-protein kinase FRK (P42685 whole entry): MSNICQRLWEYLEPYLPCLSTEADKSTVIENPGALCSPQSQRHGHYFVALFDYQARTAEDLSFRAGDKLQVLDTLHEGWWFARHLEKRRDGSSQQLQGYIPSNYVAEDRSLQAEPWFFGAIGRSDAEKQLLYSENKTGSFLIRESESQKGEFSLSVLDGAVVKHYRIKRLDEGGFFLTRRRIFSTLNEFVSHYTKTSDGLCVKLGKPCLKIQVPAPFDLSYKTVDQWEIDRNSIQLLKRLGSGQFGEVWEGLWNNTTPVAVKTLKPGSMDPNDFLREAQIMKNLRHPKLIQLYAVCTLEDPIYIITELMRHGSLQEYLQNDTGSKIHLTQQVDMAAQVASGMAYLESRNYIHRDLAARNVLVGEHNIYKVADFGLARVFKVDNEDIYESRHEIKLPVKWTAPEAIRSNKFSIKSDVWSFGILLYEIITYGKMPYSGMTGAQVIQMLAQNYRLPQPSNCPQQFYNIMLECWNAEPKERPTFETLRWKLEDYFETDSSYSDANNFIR
Chain of Mitogen-activated protein kinase kinase kinase 1 (Q13233 whole entry): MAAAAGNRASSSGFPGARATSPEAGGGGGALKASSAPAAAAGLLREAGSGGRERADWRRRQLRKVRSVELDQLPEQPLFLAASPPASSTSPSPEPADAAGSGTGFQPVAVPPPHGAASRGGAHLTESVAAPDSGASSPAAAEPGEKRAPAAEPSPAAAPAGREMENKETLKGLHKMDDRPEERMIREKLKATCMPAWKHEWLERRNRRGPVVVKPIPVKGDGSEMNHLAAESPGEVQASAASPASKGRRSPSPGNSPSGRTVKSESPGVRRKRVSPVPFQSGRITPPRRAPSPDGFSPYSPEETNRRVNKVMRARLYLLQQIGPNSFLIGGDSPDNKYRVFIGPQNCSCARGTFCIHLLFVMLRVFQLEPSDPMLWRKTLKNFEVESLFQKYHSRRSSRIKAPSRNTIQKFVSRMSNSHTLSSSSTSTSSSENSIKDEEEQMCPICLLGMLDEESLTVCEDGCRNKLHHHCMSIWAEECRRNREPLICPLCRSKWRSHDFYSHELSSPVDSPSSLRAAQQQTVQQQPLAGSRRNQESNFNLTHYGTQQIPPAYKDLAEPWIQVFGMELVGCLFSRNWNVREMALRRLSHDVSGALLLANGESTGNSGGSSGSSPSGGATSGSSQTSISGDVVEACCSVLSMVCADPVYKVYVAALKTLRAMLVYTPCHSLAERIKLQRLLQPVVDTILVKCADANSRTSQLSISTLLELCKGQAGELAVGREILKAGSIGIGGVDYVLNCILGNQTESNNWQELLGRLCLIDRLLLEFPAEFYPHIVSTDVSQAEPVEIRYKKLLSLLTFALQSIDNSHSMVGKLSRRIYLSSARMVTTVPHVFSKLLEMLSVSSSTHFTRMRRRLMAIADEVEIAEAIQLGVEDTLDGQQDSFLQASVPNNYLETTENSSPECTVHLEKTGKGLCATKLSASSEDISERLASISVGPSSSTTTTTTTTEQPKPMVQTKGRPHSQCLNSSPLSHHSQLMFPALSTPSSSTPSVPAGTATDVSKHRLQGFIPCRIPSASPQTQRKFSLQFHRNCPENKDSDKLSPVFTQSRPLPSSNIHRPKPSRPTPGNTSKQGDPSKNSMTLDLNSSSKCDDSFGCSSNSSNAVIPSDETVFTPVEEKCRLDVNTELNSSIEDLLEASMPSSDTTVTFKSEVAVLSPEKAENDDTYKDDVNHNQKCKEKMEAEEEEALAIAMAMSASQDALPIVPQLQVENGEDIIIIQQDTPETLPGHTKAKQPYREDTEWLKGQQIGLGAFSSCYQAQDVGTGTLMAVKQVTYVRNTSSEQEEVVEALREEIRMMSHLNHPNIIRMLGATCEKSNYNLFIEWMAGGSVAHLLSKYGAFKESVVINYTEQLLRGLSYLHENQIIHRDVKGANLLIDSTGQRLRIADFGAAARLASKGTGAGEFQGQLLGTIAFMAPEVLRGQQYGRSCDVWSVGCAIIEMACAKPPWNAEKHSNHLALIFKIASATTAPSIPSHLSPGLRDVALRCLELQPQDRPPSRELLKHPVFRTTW

`C[C@@H](N)c1ccc(C(=O)Nc2ccnc3[nH]ccc23)cc1` [Y-39983]: the Kd in experiment [1], in experiment [2], in [3], in experiment [4], in experiment [5] and in [6] was > 30 µM (inactive) each time. The Kd in [7], in experiment [8], in experiment [9] and in [10] was > 30 µM (inactive) in each case.
Turning to `CN1C/C=C/CCOc2cccc(c2)-c2ccnc(n2)Nc2cccc(c2)C1` [ZOTIRACICLIB], the Kd in experiment [1] was > 30 µM (inactive); in [2] it was > 30 µM (inactive); in experiment [3], > 30 µM (inactive); in experiment [4] it was > 30 µM (inactive); in experiment [5], > 30 µM (inactive); in [6], 2.38 µM (active). In addition, the Kd in experiment [7], in experiment [8], in [9] and in experiment [10] was > 30 µM (inactive) throughout.
